Assay results published in patent US10273220B2, “Derivative of Inula lineariifolia lactone A” (SHANXI ZHENDONG LEADING BIOTECHNOLOGY CO., LTD., priority 2015, dated 2019).
Where a name gives a salt, the structure may show the parent alone.

Columns and labels:
[1] = system: experimental autoimmune encephalomyelitis (EAE) model; experiment: Pharmacodynamics on EAE model (MOG 35-55 induced), EAE score and H&E/LFB staining of cervical spinal cord; assay type: in vivo, C57BL/6 mice; details: for incidence of EAE: intragastric administration (FIG. 5, FIG. 6)
[2] = system: Mice; experiment: Single-dose toxicity in mice; assay type: in vivo; details: for deaths: three males and three females
Method: Mice were divided into four groups for each having three males and three females and treated by compound 1 at a single-dose of 200, 600, 1800 and 5400 mg/kg, respectively.

[3] = system: experimental autoimmune encephalomyelitis (EAE) model; details: mice; cited from earlier work
[4] = Bioavailability by oral administration; assay type: in vivo
[5] = system: Sprague Dawley rats; experiment: 7-day repeated intragastric toxicity in rats; assay type: in vivo; details: intragastrically daily at 75, 150, 300 mg/kg for 7 consecutive days, 3 males and 3 females per group
Method: Sprague Dawley rats, each group having 3 males and 3 females were administrated intragastrically daily at 75, 150, 300 mg/kg respectively for 7 consecutive days.

[6] = 30 mg/kg/day intragastrically, vs EAE model group
[7] = crystal type A, 15 mg/kg once daily oral gavage, vs EAE model group

Row | SMILES | course of EAE ([1]; 30 mg/kg) | disease severity (EAE score) ([1]; 30 mg/kg/day intragastrically, from day 0 of immunization, 30 days) | onset of EAE ([1]; 30 mg/kg/day intragastrically, from day 0 of immunization, 30 days, in 0.5% CMC-Na) | arrangement of the organization (blood vessel and tissue) [1, 6] | demyelination (LFB staining) [1, 6] | inflammatory cells (H&E analysis) [1, 6] | incidence of EAE [1] | deaths ([2]; single dose 1800 mg/kg) | deaths ([2]; single dose 5400 mg/kg) | toxic reactions ([2]; single dose 200 and 600 mg/kg, three males and three females per group) | therapeutic effect on EAE model [3] | bioavailability by oral administration [4] | onset of EAE ([1]; crystal type A in injection water, 15 mg/kg once daily oral gavage from day 0) | course of EAE ([1]; crystal type A, 15 mg/kg once daily oral gavage) | disease severity (EAE score) ([1]; crystal type A, 15 mg/kg once daily oral gavage from day 0) | demyelination (LFB staining) ([1]; crystal type A, 15 mg/kg once daily oral gavage, vs EAE model control) | arrangement of the organization (blood vessel and tissue) [1, 7] | inflammatory cells (H&E analysis) [1, 7] | toxic reactions [5]
1 | CC(=O)O[C@H]1C[C@H](OC(C)=O)[C@]2(C)[C@@H]1[C@H](C)C[C@@H]1OC(=O)[C@H](CN(C)C)[C@H]1[C@@H]2OC(C)=O [Compound I, dimethylamine 4-O-acetyl inula lineariifolia lactone A] | ameliorated | reduced | delayed | basically returned to normal condition | significantly reduced | reduced | significantly reduce | One female mouse died | Five mice except one male mouse died | No obvious toxic reactions were observed | – | – | – | – | – | – | – | – | –
2 | C=C1C(=O)O[C@H]2C[C@@H](C)[C@@H]3[C@@H](OC(C)=O)C[C@H](O)[C@@]3(C)[C@@H](OC(C)=O)[C@H]12 [Inula lineariifolia lactone A] | – | – | – | – | – | – | – | – | – | – | good therapeutic effect | low | – | – | – | – | – | – | –
3 | CC(=O)O[C@H]1C[C@H](OC(C)=O)[C@]2(C)[C@@H]1[C@H](C)C[C@@H]1OC(=O)[C@H](CN(C)C)[C@H]1[C@@H]2OC(C)=O [Compound IV, dimethylamine 4-O-acetyl inula lineariifolia lactone A fumarate] | – | – | – | – | – | – | significantly reduce | – | – | – | – | – | delayed | ameliorated | reduced | significant lower | basically returned to normal condition | reducing | No obvious toxic reactions were observed
